From patent US7056734B1, “Differentiation of non-insulin producing cells into insulin producing cells by GLP-1 or exendin-4 and uses thereof” (The United States of America as represented by the …, priority 1998, dated 2006)
Where two headings read alike, the source gives them in different places.

How the values were obtained:
[1] = system: AR42J cells; experiment: Immunoreactive insulin release from treated AR42J cells (RIA); assay type: cell-based, rat; conditions: 200 μM PKI or PD98059 (50 μM)
Protocol: Measurement of immunoreactive insulin. AR42J cells were cultured as before in 12-well cluster plates. When cells reached 60% confluence, they were treated with GLP-1 for 3 days. At the beginning of the experiments, an aliquot of the medium was taken in order to assay the insulin accumulation in the medium. Then the cells were twice washed with Kreb's Ringer Balanced Buffer (KRBB) and incubated in the same buffer containing 10 mM glucose for another 1 h. The medium was collected and kept at −20° C. until insulin levels were assayed by RIA (See Example 1; Wang et al., Endocrinology, 1995). The cells were washed with PBS and detached with 0.25% typsin and 0.02% EDTA. The cell pellet was collected and lysed with formic acid for protein determination by the Bradford method (Bradford, 1976), using bovine-globulin as standard.

[2] = system: AR42J cells; experiment: Immunocytochemistry of insulin- and glucagon-positive AR42J cells; assay type: cell-based, rat; conditions: PD98059 50 μM or PKI 300 μM added concurrently with GLP-1
Protocol: Cell culture. AR42J cells were maintained in Dulbecco's modified Eagle's medium (DMEM) supplemented with 10% fetal calf serum (FBS), 100 IU/ml penicillin, 100 μg/ml streptomycin and 2 mM glutamine. Cells from passage 23–35 were used throughout this study. Cells were routinely plated at a density of about 10^5 cells/ml in 12-well cluster dishes or on coverslips and incubated in a humidified incubator at 37° C. with 95% air and 5% CO2.
Immunocytochemistry analysis. Cells were cultured on glass coverslips, washed with phosphate buffered saline (PBS) to remove serum, and fixed with 0.5% glutaraldehyde in PBS. Cells were permeabilized with 0.2% Triton X-100 for 5 min and the rest of the procedure was carried out at room temperature in a humidified chamber. Suction was used to remove reagents between each step but drying of specimens was avoided. Sufficient reagent was used to cover each specimen (approximately 1 or 2 drops was usually adequate). The coverslips were incubated in 0.3% H2O2 in PBS for 30 min to quench endogenous peroxidase activity and washed in PBS×3 times, followed by incubation with 2% goat serum in PBS for 30 min to block non-specific binding of IgG. Excess serum was removed by blotting. The specific primary polyclonal antisera (anti-insulin 1:300; anti-glucagon 1:300) were used. Antibody was diluted in PBS containing 1% goat serum. This was applied to the coverslip and incubated at room temperature for 1 h. The coverslips were washed ×3 times in PBS, each time for 5 min, then incubated with biotinylated second antibody for 1 h and washed ×3 times with PBS. Avidin-biotin-peroxidase complex in PBS was applied for 30 min. Immunoperoxidase labeling was performed with a Vectostain ABC kit (Vector Labs, Burlingame, Calif.). After extensive washing in PBS for 4–5 times (each 5 min), the coverslips were incubated in diaminobenzidine tetrahydrochloride (DAB) in PBS, with 0.01% hydrogen peroxide for 3 min. The reaction was stopped by washing the coverslips in PBS and examined under a light microscope. To confirm specific staining, samples incubated with preabsorbed primary antibody were used as negative control, and the insulin producing cell line RIN 1046-38 cells were used as positive control for our experiments. The avidin-biotin-peroxidase (ABC) procedure was performed according to methods known in the art (Hsu et al., 1981).

[3] = system: ERK; experiment: MAP kinase (ERK) activity in AR42J cells; assay type: cell-based, rat; conditions: PKI 300 μM
Protocol: MAP Kinase Activity. After treatment, 60 mm dishes of 80% confluent cells were lysed at 4° C. in lysis buffer (in mM): 50 TRIS-HCl, PH 8, 150 NaCl, 5 EDTA, 1% NP-40, 0.25% sodium deoxycholate, 1 NaF, 10 sodium pyrophosphate, 0.1 PMSF, 1 sodium orthovanadate, 20 μg/ml aprotinin, and 10 μg/ml leupeptin. The cell lysate was clarified by centrifugation at 16,000×g at 4° C. for 20 min. The clarified cell lysate was immunoprecipitated overnight at 4° C., rotating with 4.5 μg of ERK1-CT antibody and 40 μl of packed protein G+protein A agarose resin (Oncogene Research Product, Cambridge, Mass.). The immune pellet was assayed for MAPK activity using MBP as the substrate. MBP (18.6 μg) was phosphorylated at 20° C. for 10 min in a final volume of 60 μl containing 20 mM Hepes, PH 7.4, 10 mM MgCl2, 1 mM DTT, 20 uM unlabeled ATP and 40 μCi (3,000 Ci/mmol) [^32P]-ATP. The reaction was terminated by the addition of 25 μl of 3× Laemmli sample buffer and heating at 70° C. for 10 min. MAPK activity was assessed by SDS-PAGE and auto-radiography. The autoradiograms were quantified by densitometry.

[4] = system: AR42J cells; experiment: Protein tyrosine phosphorylation in AR42J cells; assay type: cell-based, rat; conditions: 5 min treatment
Protocol: Tyrosine Phosphorylation Studies. […] Then the medium was removed and fresh KRBB was added, followed by placing the cell on a 37° C. hot plate for 5 min. After addition of various reagents (see FIG. 24) for 5 min the reaction was terminated by submersion of the dishes in liquid nitrogen. The frozen cells were scraped and lysed in RIPA buffer. […] The blots were developed using the ECL chemiluminescence detection system (Amersham).

[5] = system: AR42J cells; experiment: Amylase release from AR42J cells; assay type: cell-based, rat; conditions: for effect on CCK-induced amylase release: combined with CCK (1 nM), genestein 300 μM
Protocol: Cell Culture. AR42J cells were maintained in Dulbecco's modified Eagle's medium (Gibco, Grand Island, N.Y.) (DMEM) supplemented with 10% Fetal Calf Serum, 100 IU/ml penicillin, 100 μg/ml streptomycin and 2 mM glutamine. Cells from passage 23–36 were used throughout this study.
Amylase Assay. For amylase secretion, cells were washed free of medium with 2 ml phosphate buffered saline (PBS). Incubation was then carried out in DMEM containing 15 mM HEPES, 0.2% bovine serum albumin (BSA) and 0.01% soybean trypsin inhibitor. The hormones and reagents of interest were added for 50 min at 37° C. The incubation medium was then immediately removed for amylase determination and the cells were again washed in 2 ml ice-cold PBS. […] The released amylase was expressed as the percentage of the total amylase activity of the cells.

[6] = system: AR42J cells; experiment: Intracellular cAMP in AR42J cells; assay type: cell-based, rat; conditions: for intracellular cAMP levels: 1 h, GLP-1 0.1 to 100 nM, IBMX 100 nM, CCK 0.1 to 100 nM, exendin-4 0.1 to 10 nM
Protocol: Measurement of cAMP. Cells were grown in 12-well dishes and treated with hormones and reagents±IBMX as described above. They were then washed 3 times in ice-cold PBS and lysed with 1 ml ice-cold […] perchloric acid. The lysates (950 μl) were transferred to microcentrifuge tubes and the pH adjusted to 7.0 using 5 M K2CO3. After centrifugation for 5 min at 10^4 rpm, the supernatant was vacuum dried, and then recovered in 200 μl Tris/EDTA buffer. After addition of 0.15 mM Na2CO3 (50 μl) and 0.15 mM ZnSO^4 (50 μl), followed by incubation for 15 min on ice, the salt precipitate was removed by centrifugation for 15 min at 3.5×10^3 rpm and 50 μl of supernatant was assayed using a cAMP [^3] assay kit (Amersham Corp., Arlington Heights, Ill.), (Steiner et al., 1972).

[7] = system: AR42J cells; experiment: Amylase content and CCK response of AR42J cells after 72 h treatment; assay type: cell-based, rat; conditions: dexamethasone 72 h
Protocol: Amylase Assay. For amylase determination, cells were washed free of medium with 2 ml PBS. Incubation was then carried out in DMEM containing 15 mM HEPES, 0.2% BSA and 0.01% soybean trypsin inhibitor. CCK (1 nM) was added for 50 min at 37° C. The incubation medium was then immediately removed for amylase determination and the cells were again washed in 2 ml ice-cold PBS. Lysate buffer containing (in mM) 130 Tris-HCl, 10 CaCl2, 75 NaCl, and 0.2% Triton X-100 (pH 8.0) was added to the cells and the lysates were then collected for total amylase (Ceska et al., 1969). The released amylase was expressed as the percentage of the total amylase in the cells.

[8] = system: AR42J cells; experiment: Intracellular calcium in single AR42J cells (indo-1); assay type: cell-based, rat; conditions: for AR42J cells showing [Ca2+]i response: CCK 1 nM
Protocol: Measurement of intracellular calcium, [Ca^2+]l. AR42J cells were loaded with the fluorescent Ca^2+ probe, indo-1 acetoxymethyl ester (indo-1/AM). […] Both loading with indo-1 and the experiments were carried out at room temperature (22–24° C.). […] The emission field was restricted to a single cell. Indo-1 was excited at 350±5 nm every 5 ms, and the fluorescence emission was split into wavelength bands of 410±5 and 490±5 nm. […] The cell autofluorescence was assessed in a large number of indo-1 non-loaded cells from the same batch. […] Routinely, the cells were exposed to the test solution for 240–300s. Thereafter, the test solution was washed out, while [Ca^2+]l was monitored for additional 120–180s. The test solutions were prepared just prior to the experiment by adding the hormones in standard bathing solution.

[9] = system: rat acinar cells; conditions: CCK alone vs 10^−8 M exendin-4 and CCK together; Malhotra et al. 1992; cited from earlier work
[10] = system: AR42J cells; experiment: 125I-GLP-1 binding to AR42J cells; parameters: species or system rat; dose or concentration left out as unconfirmed; conditions: displacement by cold GLP-1, n=9
Protocol: GLP-1 binding. AR42J cells were plated and cultured as described above. At the start of the binding experiment the cells were incubated with serum-free DMEM for 2 h at 37° C. Cells were then washed twice with 0.5 ml binding buffer containing (in mM) 120 NaCl, 1.2 MgSO4, 13 sodium acetate, 5 KCl, 10 Tris, pH 7.6. […] We only used freshly prepared ^125I-GLP-1 within two weeks of the reference date. At the end of the incubation, the supernatant was discarded and the cells were washed three times with ice-cold PBS. Cells were lysed with 0.5 ml 0.5 N NaOH/0.1% SDS for 30 min at room temperature. The radioactivity was measured in the lysates in an ICN Apec series gamma counter. […] This method has been used previously to characterize GLP-1 binding in CHO cells overexpressing GLP-1 receptor and in 3T3-L1 adipocytes (Montrose-Rafizadeh et al., J. Biol. Chem., 1997; Montrose-Rafizadeh et al., J Cell Physiol., 1997).

[11] = 50 min, glucagon 10 or 100 nM, GLP-1 10 nM, insulin 100 nM, 8-Br-cAMP 100 nM, vanadate 1 mM

## CCCCCCCCCCCCCCCCOCC(CO)OC (racemic) [PKI, 1-o-Hexadecyl-2-o-methyl-rac-glycerol, reference compound]
[1]
  insulin secretion of GLP-1-treated cells in presence of inhibitor: barely detected
[2]
  effect on GLP-1-induced conversion of AR42J cells: conversion of the cells did not occur
[3]
  MAPK activity with inhibitor alone: decreased MAPK activity to less than that of control cells

## O=c1c(-c2ccc(O)cc2)coc2cc(O)cc(O)c12 [Genestein]
[4]
  effect on protein tyrosine phosphorylation: decreased tyrosine phosphorylations induced by CCK
[5]; vanadate 1 mM
  effect on CCK-induced amylase release: decreased

## CC(C)Cn1c(=O)n(C)c(=O)c2[nH]cnc21 [IBMX]
[6]
  intracellular cAMP levels: not altered

## [F-].[Na+] [NaF, sodium fluoride]
[4]
  effect on protein tyrosine phosphorylation: increased
[5]; [11]
  effect on amylase release when given alone: did like-wise

## COc1cccc(-c2cc(=O)c3ccccc3o2)c1N [PD98059, reference compound]
[1]
  insulin secretion of GLP-1-treated cells in presence of inhibitor: barely detected
[2]
  effect on GLP-1-induced conversion of AR42J cells: conversion of the cells did not occur

## C[C@@H]1C[C@H]2[C@@H]3CCC4=CC(=O)C=C[C@]4(C)[C@@]3(F)[C@@H](O)C[C@]2(C)[C@@]1(O)C(=O)CO [dexamethasone, reference compound]
[7]
  increase in amylase content vs non-dexamethasone-treated cells: 6.6 fold
[7]; non-treated cells 1.88 U/l
  amylase content of cells: 12.57 U/l

## [O]=[V]([O-])([O-])[O-] [vanadate]
[5]
  effect on amylase release when given alone: increased significantly
[5]; vanadate 1 mM
  effect on CCK-induced amylase release: increased significantly

## CCK: Cholecytokinin, stimulus of amylase release, from Sigma
[8]; single cells
  peak [Ca2+]i amplitude, increase over resting indo-1 fluorescence ratio (IFR): 2.5–3.5 fold
[8]; single cells, glucagon 10 nM
  AR42J cells showing [Ca2+]i response: 85%
[6]
  intracellular cAMP levels: not altered
[4]
  increase in tyrosine phosphorylation levels of 46, 66, 120 and 190 kDa proteins: ≥ 2 fold
[5]; 50 min, dexamethasone-induced AR42J cells
  concentration of maximum stimulation of amylase release: 10 nM
[5]; [11]
  effect on amylase release when given alone: potent stimulus of amylase release
[9]
  total amylase released: 12%

## ^125I-GLP-1: radiolabelled GLP-1 (2,000 Ci/mmol, Peninsula)
[10]
  specific 125I-GLP-1 binding, % of total binding: 27±3.2%
  specific 125I-GLP-1 binding, % of total radioactivity added: 0.64±0.16%

## glucagon: islet hormone, from Bachem
[8]; glucagon 10 nM
  peak [Ca2+]i transient as percent of resting IFR level: 200–250%
[8]; glucagon 10 nM, 8-bromo-cAMP 0.1 μM for 60–300 sec
  effect on time course of CCK-induced [Ca2+]i transients: attenuated rate of rise and a very slow rate of relaxation
[8]; single cells, glucagon 10 nM
  AR42J cells showing [Ca2+]i response: 70%
[6]; glucagon 10 nM, presence and absence of CCK
  increase in cAMP levels: 2 fold
[5]; [11]
  effect on amylase release when given alone: no effect
[5]; vanadate 1 mM
  effect on CCK-induced amylase release: inhibited, but did not fully abolish

## insulin: islet hormone, from Sigma
[4]
  effect on protein tyrosine phosphorylation: increased phosphorylation of 97 kDa band
[5]; [11]
  effect on amylase release when given alone: did not influence amylase release
[5]; vanadate 1 mM
  effect on CCK-induced amylase release: did not influence amylase release
[5]; pre-incubation 8, 24, 48 or 72 h with GLP-1 (10 nM) and insulin (100 nM)
  basal or CCK (1 nM)-induced amylase release after pre-incubation: did not increase
